According to ChEMBL document CHEMBL1133556, “Carbonic anhydrase inhibitors: water-soluble 4-sulfamoylphenylthioureas as topical intraocular pressure-lowering agents with long-lasting effects” (J Med Chem, 2000):
pKi: −log10 of the molar value. Converted amounts (≈) assume the structure as drawn. Residues, ends and D or L forms follow the SMILES beside them. *: point of attachment. X1 = NS(=O)(=O)c1ccc(NC(=S)*)cc1

Assays:
Carbonic anhydrase 1 = Carbonic anhydrase 1 (Homo sapiens, UniProt P00915)
Description: Inhibitory activity against human recombinant carbonic anhydrase I

Carbonic anhydrase 4 = target: T1, Carbonic anhydrase 4 (Bos taurus, UniProt Q95323)
T1 sequence (Q95323 whole entry): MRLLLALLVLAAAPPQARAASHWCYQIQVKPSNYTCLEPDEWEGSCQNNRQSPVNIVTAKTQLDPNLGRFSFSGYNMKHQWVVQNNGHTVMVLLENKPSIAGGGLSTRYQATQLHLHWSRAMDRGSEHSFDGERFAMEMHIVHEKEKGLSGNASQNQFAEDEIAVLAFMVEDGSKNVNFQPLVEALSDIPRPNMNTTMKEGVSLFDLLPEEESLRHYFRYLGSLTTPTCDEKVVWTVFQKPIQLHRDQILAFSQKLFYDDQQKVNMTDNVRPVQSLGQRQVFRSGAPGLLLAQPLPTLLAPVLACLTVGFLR
Description: Inhibitory activity against bovine carbonic anhydrase IV from lung microsomes

physchem [1] = conditions: buffer, pH 7.4
Description: (§1) Solubility (in uM) in pH 7.40 at 25 degree C

Oryctolagus cuniculus [2] = species on record: Oryctolagus cuniculus
Carbonic anhydrase 2 = Carbonic anhydrase 2 (Homo sapiens, UniProt P00918)
Description: Inhibitory activity against human recombinant carbonic anhydrase II

Oryctolagus cuniculus [3] = species on record: Oryctolagus cuniculus; remark: listed apart in the source
Description: Tested in vitro for transcorneal accession rates (corneal permeability) against intact cornea

Oryctolagus cuniculus [4] = species on record: Oryctolagus cuniculus; remark: listed apart in the source
Description: Tested in vivo for lowering IOP (Intraocular Pressure)in Normotensive Rabbits at pH 7.0 after treatment with 50 uL, activity at 90 minutes

Oryctolagus cuniculus [5] = species on record: Oryctolagus cuniculus; remark: listed apart in the source
Description: Tested in vitro for transcorneal accession rates (corneal permeability) against cornea with no epithelium

[6] = octanol/water
Description: Partition coefficient (logD) (chloroform/buffer)

Oryctolagus cuniculus [7] = species on record: Oryctolagus cuniculus; remark: listed apart in the source
Description: Tested in vivo for lowering IOP (Intraocular Pressure)in Normotensive Rabbits at pH 7.0 after treatment with 50 uL, activity at 30 minutes

physchem [8] = conditions: buffer, pH 7.4; remark: listed apart in the source
Description: as §1

Oryctolagus cuniculus [9] = experiment: Tested in vivo for lowering IOP (Intraocular Pressure)in Normotensive Rabbits at pH 7.0 after treatment with 50 uL, activity at 60 minutes; type: functional

Carbonic anhydrase 1, sequence (P00915 whole entry): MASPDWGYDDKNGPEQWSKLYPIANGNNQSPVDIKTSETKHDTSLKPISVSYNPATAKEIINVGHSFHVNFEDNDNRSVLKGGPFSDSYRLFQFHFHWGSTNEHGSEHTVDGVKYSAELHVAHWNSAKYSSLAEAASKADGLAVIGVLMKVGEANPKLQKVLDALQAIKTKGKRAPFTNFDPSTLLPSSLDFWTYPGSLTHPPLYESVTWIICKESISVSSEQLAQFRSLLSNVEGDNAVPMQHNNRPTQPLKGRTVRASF

Row | Structure (SMILES) | pKi (Carbonic anhydrase 1) | pKi (Carbonic anhydrase 4) | solubility (physchem [1]) | Delta IOP (Oryctolagus cuniculus [2]) | pKi (Carbonic anhydrase 2) | kin (Oryctolagus cuniculus [3]) | Delta IOP (Oryctolagus cuniculus [4]) | kin (Oryctolagus cuniculus [5]) | logD [6] | Delta IOP (Oryctolagus cuniculus [7]) | solubility (physchem [8]) | Delta IOP (Oryctolagus cuniculus [9])
1 | NS(=O)(=O)c1ccc(N/C(S)=N/C(C(=O)O)C(O)c2ccccc2)cc1 (stereo unspecified) | 7.62 | 8.05 | 48 mM (≈ 19 mg/mL) | 10 mmHg | 8.70 | 4900 h⁻¹ | 9.6 mmHg | 12300 h⁻¹ | 2.314 | 9 mmHg |  | 
2 | NS(=O)(=O)c1ccc(NC(=S)NCC(=O)NCC(=O)O)cc1 | 7.27 | 7.49 |  |  | 7.82 |  |  |  |  |  |  | 
3 | CCC(C)C(/N=C(\S)Nc1ccc(S(N)(=O)=O)cc1)C(=O)O (stereo unspecified) | 7.66 | 8.00 |  | 4 mmHg | 8.40 |  | 0.3 mmHg |  |  | 2 mmHg |  | 
4 | NS(=O)(=O)c1ccc(N/C(S)=N\CC(=O)O)cc1 | 7.21 | 7.41 |  | 5.9 mmHg | 7.70 |  | 0.5 mmHg |  |  | 3 mmHg |  | 
5 | NS(=O)(=O)c1ccc(N=C=S)cc1 | 5.30 |  |  |  | 6.73 |  |  |  |  |  |  | 
6 | NS(=O)(=O)c1ccc(N/C(S)=N/C(CS)C(=O)O)cc1 (stereo unspecified) | 7.60 | 8.00 |  | 0 mmHg | 8.30 | 300 h⁻¹ | 0 mmHg | 700 h⁻¹ | 0.09 | 0 mmHg | 65 mM (≈ 21.8 mg/mL) | 
7 | NS(=O)(=O)c1ccc(N/C(S)=N\c2ccc(C(=O)O)cc2)cc1 | 7.23 | 7.40 |  |  | 7.80 |  |  |  |  |  |  | 
8 | CC(=O)/N=c1/sc(S(N)(=O)=O)nn1C [METHAZOLAMIDE] |  |  |  |  |  | 1900 h⁻¹ |  | 13000 h⁻¹ | 0.06 |  |  | 
9 | NS(=O)(=O)c1ccc(N/C(S)=N/C(Cc2ccccc2)C(=O)O)cc1 (stereo unspecified) | 7.52 | 7.89 |  | 4.1 mmHg | 8.22 |  | 3 mmHg |  |  | 4 mmHg |  | 
10 | NS(=O)(=O)c1ccc(N/C(S)=N\CCc2ccccc2)cc1 | 6.90 | 7.12 |  |  | 7.38 |  |  |  |  |  |  | 
11 | CCOc1ccc2nc(S(N)(=O)=O)sc2c1 [ETHOXZOLAMIDE] |  |  | 0.04 mM (≈ 0.0103 mg/mL) |  |  |  |  |  |  |  |  | 
12 | NS(=O)(=O)c1ccc(NC(=S)N2CCCC2C(=O)O)cc1 (stereo unspecified) | 6.96 | 7.17 |  | 1 mmHg | 7.60 |  | 1 mmHg |  |  | 0 mmHg |  | 
13 | NS(=O)(=O)c1ccc(N/C(S)=N/CCC(=O)NC(Cc2c[nH]cn2)C(=O)O)cc1 (stereo unspecified) | 7.64 | 8.00 | 52 mM (≈ 22.9 mg/mL) | 1.2 mmHg | 8.52 | 2200 h⁻¹ | 4 mmHg | 5000 h⁻¹ | 0.725 | 1 mmHg |  | 
14 | NS(=O)(=O)c1ccc(N/C(S)=N\c2cccc(C(=O)O)c2)cc1 | 7.30 | 7.44 |  |  | 7.74 |  |  |  |  |  |  | 
15 | CC(C)CC(/N=C(\S)Nc1ccc(S(N)(=O)=O)cc1)C(=O)O (stereo unspecified) | 7.68 | 7.92 |  |  | 8.30 |  | 6 mmHg |  |  | 5.2 mmHg |  | 6.3 mmHg
16 | NS(=O)(=O)c1ccc(NC(=S)N2CCC[C@H]2C(=O)NCC(=O)NCC(=O)O)cc1 | 7.70 | 7.96 |  |  | 8.52 |  |  |  |  |  |  | 
17 | NS(=O)(=O)c1ccc(N/C(S)=N\CCc2ccccn2)cc1 | 6.91 | 7.11 |  |  | 7.40 |  |  |  |  |  |  | 
18 | NS(=O)(=O)c1ccc(NC(=S)NC(CC(=O)O)C(=O)NC(CC(=O)O)C(=O)O)cc1 (stereo unspecified) | 7.30 | 7.49 |  |  | 7.82 |  |  |  |  |  |  | 
19 | CSCCC(/N=C(\S)Nc1ccc(S(N)(=O)=O)cc1)C(=O)O (stereo unspecified) | 7.57 | 7.89 |  |  | 8.40 |  |  |  |  |  |  | 

Row | Structure (SMILES) | pKi (Carbonic anhydrase 1) | pKi (Carbonic anhydrase 4) | solubility (physchem [1]) | Delta IOP (Oryctolagus cuniculus [2]) | pKi (Carbonic anhydrase 2) | kin (Oryctolagus cuniculus [3]) | Delta IOP (Oryctolagus cuniculus [4]) | kin (Oryctolagus cuniculus [5]) | logD [6] | Delta IOP (Oryctolagus cuniculus [7]) | solubility (physchem [8]) | Delta IOP (Oryctolagus cuniculus [9])
20 | NS(=O)(=O)c1ccc(N/C(S)=N/C(Cc2c[nH]cn2)C(=O)O)cc1 (stereo unspecified) | 7.49 | 7.82 |  |  | 8.30 |  | 4 mmHg |  |  | 4 mmHg |  | 4.6 mmHg
21 | NS(=O)(=O)c1ccc(N/C(S)=N/C(Cc2ccc(O)c(O)c2)C(=O)O)cc1 (stereo unspecified) | 7.46 | 7.74 |  |  | 8.15 |  |  |  |  |  |  | 
22 | NS(=O)(=O)c1ccc(N/C(S)=N/C(C(=O)O)c2ccccc2)cc1 (stereo unspecified) | 7.40 | 7.82 |  |  | 8.22 | 5900 h⁻¹ |  | 14300 h⁻¹ | 3.652 |  | 54 mM (≈ 19.7 mg/mL) | 
23 | NS(=O)(=O)c1ccc(N/C(S)=N/C(Cc2ccc(O)cc2)C(=O)O)cc1 (stereo unspecified) | 7.59 | 7.89 |  |  | 8.30 |  |  |  |  |  |  | 
24 | CC(/N=C(/S)Nc1ccc(S(N)(=O)=O)cc1)C(=O)NC(Cc1ccccc1)C(=O)O (stereo unspecified) | 7.64 | 7.89 |  | 0.2 mmHg | 8.40 |  | 3 mmHg |  |  | 0.2 mmHg |  | 
25 | NS(=O)(=O)c1ccc(NC(=S)NC(CCC(=O)O)C(=O)O)cc1 (stereo unspecified) | 7.42 | 7.72 |  |  | 8.00 |  |  |  |  |  |  | 
26 | NS(=O)(=O)c1ccc(N/C(S)=N\CCC(=O)O)cc1 | 7.33 | 7.46 |  |  | 7.96 |  |  |  |  |  |  | 
27 | NS(=O)(=O)c1ccc(NC(=S)NC(CC(=O)O)C(=O)O)cc1 (stereo unspecified) | 7.46 | 7.77 |  | 2.6 mmHg | 8.10 | 100 h⁻¹ | 2 mmHg | 800 h⁻¹ | 0.05 | 2 mmHg | 60 mM (≈ 20.8 mg/mL) | 
28 | CC(C)C(/N=C(\S)Nc1ccc(S(N)(=O)=O)cc1)C(=O)O (stereo unspecified) | 7.64 | 7.89 |  |  | 8.30 |  |  |  |  |  |  | 
29 | CC(O)C(NC(=S)Nc1ccc(S(N)(=O)=O)cc1)C(=O)O (stereo unspecified) | 7.52 | 7.80 |  |  | 8.40 |  |  |  |  |  |  | 
30 | CC(C)CC(/N=C(\S)Nc1ccc(S(N)(=O)=O)cc1)C(=O)NCC(=O)O (stereo unspecified) | 7.70 | 7.89 |  |  | 8.30 |  |  |  |  |  |  | 
31 | NS(=O)(=O)c1ccc(NC(S)=NC(Cc2c[nH]cn2)C(=O)NC(Cc2ccccc2)C(=O)O)cc1 (stereo unspecified) | 7.68 | 8.05 |  |  | 8.52 |  |  |  |  |  |  | 
32 | NS(=O)(=O)c1ccc(NC(=S)N[C@@H](CC(=O)O)C(=O)N[C@@H](CC(=O)O)C(=O)N[C@@H](CC(=O)O)C(=O)N[C@@H](CC(=O)O)C(=O)O)cc1 (X1-DDDD-OH) | 7.23 | 7.57 |  |  | 8.00 |  |  |  |  |  |  | 
33 | NS(=O)(=O)c1ccc(N/C(S)=N/C(Cc2c[nH]c3ccccc23)C(=O)O)cc1 (stereo unspecified) | 7.33 | 7.62 |  |  | 7.96 |  |  |  |  |  |  | 
34 | NS(=O)(=O)c1nnc(NS(=O)(=O)c2ccccc2)s1 [BENZOLAMIDE] |  |  | 1.2 mM (≈ 0.384 mg/mL) |  |  | 10 h⁻¹ |  | 40 h⁻¹ | 0.00001 |  |  | 
35 | NS(=O)(=O)c1ccc(NC(=S)NC(Cc2cnc[nH]2)C(=O)NCC(=O)O)cc1 (stereo unspecified) | 7.89 | 8.22 |  |  | 9.00 |  |  |  |  |  |  | 
36 | N=C(N)NCCCC(/N=C(\S)Nc1ccc(S(N)(=O)=O)cc1)C(=O)O (stereo unspecified) | 6.94 | 7.21 |  | 1.2 mmHg | 7.82 |  | 4 mmHg |  |  | 1 mmHg |  | 
37 | NC(=O)CCC(NC(=S)Nc1ccc(S(N)(=O)=O)cc1)C(=O)O (stereo unspecified) | 7.40 | 7.64 |  |  | 8.05 |  |  |  |  |  |  | 
38 | CC(/N=C(/S)Nc1ccc(S(N)(=O)=O)cc1)C(=O)O (stereo unspecified) | 7.27 | 7.44 |  | 5 mmHg | 7.92 |  | 5.2 mmHg |  |  | 4 mmHg |  | 
